Source: paper PMC8815882, “Screening the pandemic response box identified benzimidazole carbamates, Olorofim and ravuconazole as promising drug candidates for the treatment of eumycetoma” (PLoS Neglected Tropical Diseases, 2022)
≈ marks a conversion by molar mass, not a printed value. Read-outs that look alike come from different tables or passages of the source.

Assays:
[1] = system: M. mycetomatis MM55; assay: IC50 determination, 2-fold dilution series 16 to 0.03125 μM; assay type: cell-based, Madurella mycetomatis; settings: for IC50 / IC90: Madurella mycetomatis
[2] = system: ten different M. mycetomatis isolates; assay: MIC / MIC50 determination (XTT) in ten M. mycetomatis isolates; assay type: cell-based, Madurella mycetomatis; settings: Madurella mycetomatis
[3] = system: M. mycetomatis isolate MM55; assay: M. mycetomatis grain infection model in G. mellonella larvae, survival; assay type: in vivo, Galleria mellonella; design: In vivo efficacy, Larvae survival %: concentration or dose not given beside the values
[4] = system: M. mycetomatis genome strain MM55; assay: CLSI M38-A2 based in vitro susceptibility screening (XTT or resazurin), growth at fixed concentration; assay type: cell-based, Madurella mycetomatis; settings: Madurella mycetomatis; for Percent fungal survival at 100 µM: replicate 2, M. mycetomatis MM55, read-out: Percentage survival at 100um, 100 uM A (second replicate column)
[5] = MM55, Table 2, M. mycetomatis MM55, read-out: IC50
[6] = MM55, mean of replicates, read-out: IC50 mean
[7] = MM55, mean of replicates, read-out: IC90 mean
[8] = MM55, replicate 1, read-out: IC50 1 um
[9] = MM55, replicate 1, read-out: IC90 1 um
[10] = MM55, replicate 2, read-out: IC50 2 um
[11] = MM55, replicate 2, read-out: IC90 2 um
[12] = MM55, replicate 3, read-out: IC50 3 um
[13] = MM55, replicate 3, read-out: IC90 3 um
[14] = median MIC over ten M. mycetomatis isolates, no asterisk, read-out: MIC50
[15] = over the tested M. mycetomatis isolates, read-out: MIC50 mean
[16] = isolate CBS247.48, read-out: MIC CBS247.48
[17] = isolate MM14, read-out: MIC MM14
[18] = isolate MM45, read-out: MIC MM45
[19] = isolate MM55, read-out: MIC MM55
[20] = isolate ParijsAl1, read-out: MIC ParijsAl1
[21] = isolate Peru72012, read-out: MIC Peru72012
[22] = G. mellonella larvae infected with M. mycetomatis
[23] = mean of three, M. mycetomatis MM55, read-out: Percentage survival at 25um, 25 uM mean
[24] = replicate A, M. mycetomatis MM55, read-out: Percentage survival at 25um, 25 um A
[25] = replicate B, M. mycetomatis MM55, read-out: Percentage survival at 25um, 25 uM B
[26] = replicate C, M. mycetomatis MM55, read-out: Percentage survival at 25um, 25 uM C
[27] = mean of three, M. mycetomatis MM55, read-out: Percentage survival at 100um, 100 uM mean
[28] = replicate 1, M. mycetomatis MM55, read-out: Percentage survival at 100um, 100 uM A (first replicate column)
[29] = replicate 3, M. mycetomatis MM55, read-out: Percentage survival at 100um, 100 uM A (third replicate column)

`CCC(C)(C)c1ccc(CC(C)CN2C[C@@H](C)O[C@@H](C)C2)cc1` (stereo partly drawn) [MMV1634358, Amorolfine, reference compound] was tested, and the “Drug static or cidal” value ([1]; M. mycetomatis) was “Static”, the IC50 [1, 5] was 5.72 µM and the IC50 [1, 6] was 5.72 µM. For the same molecule, the IC90 [1, 7] was 10.7 µM, the IC50 [1, 8] was 2.45 µM and the IC90 [1, 9] was 4.65 µM. It also gave an IC50 [1, 10] of 11.7 µM, an IC90 [1, 11] of 22.1 µM and an IC50 [1, 12] of 3 µM. It also gave an IC90 [1, 13] of 5.4 µM, an MIC50 [2, 14] of 4 µM (≈ 1.27 µg/mL) and an MIC50 [2, 15] of 4 µM (≈ 1.27 µg/mL). The MIC [2, 16] was 4 µM (≈ 1.27 µg/mL), the MIC [2, 17] was 4 µM (≈ 1.27 µg/mL) and the MIC [2, 18] was 4 µM (≈ 1.27 µg/mL). For the same molecule, the MIC [2, 19] was 2 µM (≈ 0.635 µg/mL), the MIC ([2]; isolate P1, read-out: MIC P1) was over 16 µM and the MIC [2, 20] was 0.25 µM (≈ 0.0794 µg/mL). The MIC [2, 21] was 16 µM (≈ 5.08 µg/mL), the MIC ([2]; isolate So1, read-out: MIC So1) was 2 µM (≈ 0.635 µg/mL) and the MIC ([2]; isolate i1, read-out: MIC i1) was 2 µM (≈ 0.635 µg/mL). For the same molecule, the MIC ([2]; isolate i11, read-out: MIC i11) was 16 µM (≈ 5.08 µg/mL), the “In vivo efficacy, Enhanced survival compared to control?” value (shortened to “In vivo efficacy … compared to control?”) [3, 22] was “no” and the “In vivo efficacy, Larvae survival %” value [3, 22] was 11.1%. For the same molecule, the activity at 25 µM [4, 23] was 0.888%, the activity at 25 µM [4, 24] was -0.194% and the activity at 25 µM [4, 25] was 0.287%. The activity at 25 µM [4, 26] was 2.57%, the activity at 100 µM [4, 27] was 8.96% and the activity at 100 µM [4, 28] was 0.903%. For the same molecule, the Percent fungal survival at 100 µM [4] was 2.35% and the activity at 100 µM [4, 29] was 23.6%.

For `COC(=O)Nc1nc2c(C)cccc2[nH]1` [MMV1782387], the “Drug static or cidal” value [1] was “Static”, the IC50 [1, 5] was 3.22 µM and the IC50 ([1]; MM55, mean, read-out: IC50 mean) was 3.22 µM. It also gave an IC90 ([1]; MM55, read-out: IC90 mean) of over 25 µM, an IC50 ([1]; MM55, replicate 1, read-out: IC50 1) of 2.88 µM and an IC90 ([1]; MM55, replicate 1, read-out: IC90 1) of over 25 µM. The IC50 ([1]; MM55, replicate 2, read-out: IC50 2) was 3.52 µM, the IC90 ([1]; MM55, replicate 2, read-out: IC90 2) was 6.2 µM and the IC50 ([1]; MM55, replicate 3, read-out: IC50 3) was 3.25 µM. It also gave an IC90 ([1]; MM55, replicate 3, read-out: IC90 3) of over 25 µM, an MIC50 ([2]; Table 3 and Fig 5, benzimidazole carbamates, M. mycetomatis, read-out: MIC50) of 4 µM (≈ 0.821 µg/mL) and an MIC50 [2, 14] of 4 µM (≈ 0.821 µg/mL). The MIC50 ([2]; over the isolates tested, read-out: MIC50 mean) was 4 µM (≈ 0.821 µg/mL), the MIC [2, 16] was 4 µM (≈ 0.821 µg/mL) and the MIC [2, 17] was 4 µM (≈ 0.821 µg/mL). For the same molecule, the MIC [2, 18] was 4 µM (≈ 0.821 µg/mL), the MIC [2, 19] was 4 µM (≈ 0.821 µg/mL) and the MIC ([2]; isolate P1, read-out: MIC P1) was 4 µM (≈ 0.821 µg/mL). It also gave an MIC [2, 20] of 4 µM (≈ 0.821 µg/mL), an MIC [2, 21] of 4 µM (≈ 0.821 µg/mL) and an MIC ([2]; isolate So1, read-out: MIC So1) of 4 µM (≈ 0.821 µg/mL). For the same molecule, the MIC ([2]; isolate i1, read-out: MIC i1) was 4 µM (≈ 0.821 µg/mL), the MIC ([2]; isolate i11, read-out: MIC i11) was 4 µM (≈ 0.821 µg/mL) and the “Larvae survival rate on day ten” value ([3]; 20 μM per larvae at 4, 28, 52 h after infection, day ten) was 28.9%. For the same molecule, the “Effect on larvae survival Day 4 (words)” value ([3]; 20 μM per larvae, vs infected control, day four) was “Increase survival”, the “Effect on larvae survival Day 10 (words)” value ([3]; 20 μM per larvae, vs infected control, day ten) was “able to increase larvae survival” and the “In vivo efficacy … compared to control?” value ([3]; in vivo) was “yes **”. The “In vivo efficacy, Larvae survival %” value ([3]; in vivo) was 28.9%, the activity at 25 µM ([4]; mean, read-out: Percentage survival at 25um, 25 uM mean) was 4.41% and the activity at 25 µM ([4]; replicate A, read-out: Percentage survival at 25um, 25 um A) was 0.37%. The activity at 25 µM ([4]; replicate B, read-out: Percentage survival at 25um, 25 uM B) was 7.58%, the activity at 25 µM ([4]; replicate C, read-out: Percentage survival at 25um, 25 uM C) was 5.29% and the activity at 100 µM ([4]; mean, read-out: Percentage survival at 100um, 100 uM mean) was 15.6%. It also gave an activity at 100 µM ([4]; replicate (first column), read-out: Percentage survival at 100um, 100 uM A) of 4.59%, an activity at 100 µM ([4]; replicate (second column), read-out: Percentage survival at 100um, 100 uM A) of 6.95% and an activity at 100 µM ([4]; replicate (third column), read-out: Percentage survival at 100um, 100 uM A) of 35.2%.

For `O=C(/C(=C/c1ccc(Cl)cc1Cl)n1ccnc1)c1ccc(Cl)cc1` [MMV1634491], the “Drug static or cidal” value ([1]; M. mycetomatis) was “Static”, the IC50 [1, 5] was 2.81 µM and the IC50 [1, 6] was 2.81 µM. The IC90 [1, 7] was 4.7 µM, the IC50 [1, 8] was 2.22 µM and the IC90 [1, 9] was 4.36 µM. The IC50 [1, 10] was 2.88 µM, the IC90 [1, 11] was 4.78 µM and the IC50 [1, 12] was 3.33 µM. It also gave an IC90 [1, 13] of 4.95 µM, an MIC50 [2, 14] of 1 µM (≈ 0.378 µg/mL) and an MIC50 [2, 15] of 4 µM (≈ 1.51 µg/mL). It also gave an MIC [2, 16] of 4 µM (≈ 1.51 µg/mL), an MIC [2, 17] of 4 µM (≈ 1.51 µg/mL) and an MIC [2, 18] of 2 µM (≈ 0.755 µg/mL). For the same molecule, the MIC [2, 19] was 4 µM (≈ 1.51 µg/mL), the MIC ([2]; isolate P1, read-out: MIC P1) was 4 µM (≈ 1.51 µg/mL) and the MIC [2, 20] was 4 µM (≈ 1.51 µg/mL). It also gave an MIC [2, 21] of 4 µM (≈ 1.51 µg/mL), an MIC ([2]; isolate So1, read-out: MIC So1) of 4 µM (≈ 1.51 µg/mL) and an MIC ([2]; isolate i1, read-out: MIC i1) of 1 µM (≈ 0.378 µg/mL). For the same molecule, the MIC ([2]; isolate i11, read-out: MIC i11) was 4 µM (≈ 1.51 µg/mL), the “In vivo efficacy … compared to control?” value [3, 22] was “no” and the “In vivo efficacy, Larvae survival %” value [3, 22] was 8.9%. It also gave an activity at 25 µM [4, 23] of 0.641%, an activity at 25 µM [4, 24] of -1.32% and an activity at 25 µM [4, 25] of 0.287%. The activity at 25 µM [4, 26] was 2.96%, the activity at 100 µM [4, 27] was 7.66% and the activity at 100 µM [4, 28] was -1.73%. For the same molecule, the Percent fungal survival at 100 µM [4] was 4.59% and the activity at 100 µM [4, 29] was 20.1%.

`O=S(=O)(Nc1ccc(-n2cccc2)cc1)c1ccc(Cl)c(Cl)c1` [MMV1505642] was tested, and the “Drug static or cidal” value ([1]; M. mycetomatis) was “Cidal”, the IC50 [1, 5] was 7.35 µM and the IC90 [1, 7] was 21.8 µM. For the same molecule, the IC50 [1, 8] was 3.55 µM, the IC90 [1, 9] was 20.3 µM and the IC50 [1, 10] was 8.05 µM. The IC90 [1, 11] was 22.6 µM, the IC50 [1, 12] was 10.5 µM and the IC90 [1, 13] was 22.6 µM. For the same molecule, the MIC50 [2, 14] was 16 µM (≈ 5.88 µg/mL), the MIC50 [2, 15] was 16 µM (≈ 5.88 µg/mL) and the MIC [2, 16] was over 16 µM. The MIC [2, 17] was 16 µM (≈ 5.88 µg/mL), the MIC [2, 18] was 8 µM (≈ 2.94 µg/mL) and the MIC [2, 19] was 16 µM (≈ 5.88 µg/mL). The MIC ([2]; isolate P1, read-out: MIC P1) was 16 µM (≈ 5.88 µg/mL), the MIC [2, 20] was over 16 µM and the MIC [2, 21] was 16 µM (≈ 5.88 µg/mL). The MIC ([2]; isolate So1, read-out: MIC So1) was over 16 µM, the MIC ([2]; isolate i1, read-out: MIC i1) was 16 µM (≈ 5.88 µg/mL) and the MIC ([2]; isolate i11, read-out: MIC i11) was 16 µM (≈ 5.88 µg/mL). It also gave an activity at 25 µM [4, 23] of 0.829%, an activity at 25 µM [4, 24] of -1.91% and an activity at 25 µM [4, 25] of 1.17%. It also gave an activity at 25 µM [4, 26] of 3.22%, an activity at 100 µM [4, 27] of 1.07% and an activity at 100 µM [4, 28] of -0.332%. It also gave a Percent fungal survival at 100 µM [4] of -0.607% and an activity at 100 µM [4, 29] of 4.16%.
